Test results reported in article PMC8950706, “Influence of Substitutions in the Binding Motif of Proline-Rich Antimicrobial Peptide ARV-1502 on 70S Ribosome Binding and Antimicrobial Activity” (International Journal of Molecular Sciences, 2022).
≈ marks a conversion by molar mass, not a printed value. Square brackets hold non-standard residues; d marks the D form. Peptide text beside a SMILES is read from it. Ac6c = NC1(C(=O)O)CCCCC1

Tests used:
[1] = system: E. coli BW25113; test: MIC, liquid broth micro dilution, wild type; assay type: cell-based, Escherichia coli
Description: (§1) MIC values were determined using a liquid broth micro dilution assay in sterile 96-well plates (polystyrene F-bottom, Greiner Bio-One GmbH) and a total volume of 100 μL per well. Aqueous peptide solutions (10 g/L) were serially twofold diluted in 25% Mueller-Hinton broth 2 (25% MBH2) or 33% tryptic soy broth (33% TSB) starting at a peptide concentration of 128 mg/L (50 μL/well). Overnight cultures of bacteria grown in 25% MHB2 (or 33% TSB) were diluted 30-fold in 25% MHB2 (or 33% TSB). After an incubation period of 4 h (37 °C, 200 rpm), cells were diluted to 1.5 × 10^7 cfu/mL, based on a McFarland test, and 50 μL were added to each well (final concentration of 7.5 × 10^6 […]). The plates were incubated (37 °C, 20 h) and the optical density was recorded at 595 nm using a microplate reader ([…]^TM, Beckmann Coulter). The MIC was defined as the lowest peptide concentration preventing visible bacterial growth.

[2] = system: E. coli BW25113 ∆sbmA; assay type: cell-based, Escherichia coli; conditions: for Minimal Inhibitory Concentration, 25% MHB2, ∆sbmA: 25% MHB2, 37 °C; for Minimal Inhibitory Concentration, 25% MHB2, ∆sbmA / Minimal Inhibitory Concentration, 33% TSB, ∆sbmA: 20 h, at least duplicates on two days, * once on two days, ** duplicate on one day; for Minimal Inhibitory Concentration, 33% TSB, ∆sbmA: 37 °C
Description: as §1

[3] = system: E. coli BW25113 ∆sbmA ∆mdtM; assay type: cell-based, Escherichia coli; conditions: for Minimal Inhibitory Concentration, 25% MHB2, ∆sbmA ∆mdtM: 25% MHB2, 37 °C; for Minimal Inhibitory Concentration, 25% MHB2, ∆sbmA ∆mdtM / Minimal Inhibitory Concentration, 33% TSB, ∆sbmA ∆mdtM: 20 h, at least duplicates on two days, * once on two days, ** duplicate on one day; for Minimal Inhibitory Concentration, 33% TSB, ∆sbmA ∆mdtM: 37 °C; for Effect of the additional mdtM knockout on antibacterial activity: ∆sbmA ∆mdtM compared with ∆sbmA
Description: as §1

[4] = system: E. coli 70S ribosome; test: Competitive FP binding screening assay with Cf-ARV-1502 (relative FP); design: species or system E. coli BW25113; conditions: for Inhibition of Cf-ARV-1502 binding to the 70S ribosome (in words): Figure 3: peptide concentration 1.2 µmol/L; for Ribosome Binding (%): competitive ribosome binding against Cf-ARV-1502 (relative FP; values match 1.2 µmol/L peptide), low value = strong competition
Description: E. coli 70S ribosomes were prepared using a previously described protocol that was slightly modified. Briefly, E. coli BW25113 was cultivated in Luria-Bertani (LB) medium and cells were harvested after reaching an optical density of ~4 at 600 nm by centrifugation (5000× g, 15 min, 4 °C, Rotor JLA 8.100, Avanti J-20 XP, Beckmann Coulter, Krefeld, Germany). The cell pellets were frozen and stored at −80 °C. Cells were resuspended in ribosome buffer (2 mL/g cells; 20 mmol/L HEPES-KOH, 6 mmol/L MgCl2, 30 mmol/L NH4Cl, 4 mmol/L 2-mercaptoethanol, pH 7.6). Lysozyme (0.25 g/L cell suspension) was added, and the mixture was incubated on ice for 30 min. Cells were disrupted using the bead mill homogenizer FastPrep-24™ 5G (40 s, 4 m/s, 6 cycles, MP Biomedicals Germany GmbH, Eschwege, Germany) and zirconia/silica beads (0.1 mm diameter). The lysate was centrifuged (1500× g, 5 min, 4 °C, Rotor S4180, Allegra 21R, Beckmann Coulter) and the supernatant was incubated with DNase (5 U/mL) on ice for 60 min. The cell debris was removed by two centrifugation steps (16,000× g, 30 min, 4 °C followed by 32,000× g, 60 min, 4 °C, Rotor JA 30.50 Ti, Avanti J-30I, Beckmann Coulter). The ribosome was pelleted by ultracentrifugation (165,000× g, 17 h, 4 °C, Rotor 70 Ti, Optima LE-80K, Beckmann Coulter), resuspended in ribosome buffer (0.1 mL/g pellet), and stored at −80 °C. The ribosome concentration was determined by recording the absorbance of RNA at 260 nm (NanoPhotometer NP80, Implen GmbH, München, Germany) assuming that 1 AU corresponds to a ribosome concentration of 28 nmol/L. The molecular weight of the E. coli 70S ribosome was assumed to be 2.3 MDa.
E. coli 70S ribosomes and Cf-ARV-1502 were incubated with four different concentrations of unlabeled peptides chosen based on the IC50 curves of reference peptide ARV-1502. Each peptide was diluted in ribosome buffer to obtain a concentration of 4.8 µmol/L and transferred to a 384-well-plate. Peptides were then twofold serially diluted in four steps from 4.8 to 0.6 µmol/L (20 µL). The ribosome extract was diluted in ribosome buffer to reach a concentration of 2 µmol/L and 10 µL were added to each well to obtain a final ribosome concentration of 0.5 µmol/L. Plates were centrifuged (2 min, 500× g, Rotor S2096, Allegra^TM 21R, Beckmann Coulter) and incubated at 28 °C for 90 min. Cf-labeled ARV-1502 was added (10 µL; final concentration of 20 nmol/L) and the plates were again centrifuged and incubated (28 °C, 90 min). After incubation, fluorescence polarization was recorded on a […]^TM microplate reader (λex = 485 nm, λem = 535 nm).
On each plate 12 minimum (30 µL ribosome buffer and 10 µL Cf-ARV-1502) and 12 maximum (20 µL ribosome buffer, 10 µL ribosome solution and 10 µL Cf-ARV-1502) control samples were added. Fluorescence polarization of screening samples was normalized to the fluorescence polarization of these control samples. All screening samples were measured in triplicates and the whole experiment was repeated once on another day.

[5] = system: E. coli 70S ribosome; test: Cell-free GFP expression assay (in vitro translation); assay type: biochemical; conditions: for In Vitro Translation (%): GFP expression remaining relative to control, concentration not given (higher concentration 50 µmol/L); for Reduction of GFP expression, 50 µmol/L peptide: cell-free expression, peptide-to-ribosome ratio of 25, GFP fluorescence, 37 °C
Excerpt: Possible effects of ARV-1502 and its substituted analogs on the in vitro translation of the green fluorescent protein (GFP) were probed using the NEB PureExpress Delta RF123 Kit (New England Biolabs, Ipswich, MA, USA). The sfGFP DNA template was amplified from pY71sfGFP plasmid by PCR introducing an UAA stop codon. Release factor 1 (RF1) was 50fold diluted in Pure System Buffer (PSB) containing magnesium acetate (1 mol/L), monopotassium phosphate (0.5 mol/L, pH 7.3), potassium glutamate (1 mol/L), NH4Cl (1 mol/L), calcium chloride (0.5 mol/L), spermidine (1 mol/L), putrescine (0.1 mol/L), and DTT (0.1 mol/L). Each reaction used 35 ng of sfGFP template. Peptides were added at a final concentration of 5 µmol/L and 50 µmol/L. The reaction was started by adding Kit solutions A (2 µL) and B (1.5 µL), diluted RF1 (0.5 µL), sfGFP template (0.25 µL or water as negative control), PSB (0.25 µL), and peptide (0.5 µL or water), mixed, transferred into a black 384-well plate (flat bottom, Greiner Bio-One GmbH), and incubated (37 °C, 2 h). The fluorescence was recorded every 10 min (λexc = 485 nm, λem = 535 nm) in a microplate reader (Gemini EM, Molecular Devices LLC, San Jose, CA, USA).

[6] = 33% TSB, 37 °C, 20 h, at least duplicates on two days, * once on two days, ** duplicate on one day

| Compound | Minimal Inhibitory Concentration, 25% MHB2, wt ([1]; 25% MHB2, 37 °C, 20 h, at least duplicates on two days, * once on two days, ** duplicate on one day) [µg/mL] | Minimal Inhibitory Concentration, 33% TSB, wt [1, 6] [µg/mL] | Minimal Inhibitory Concentration, 25% MHB2, ∆sbmA [2] [µg/mL] | Minimal Inhibitory Concentration, 33% TSB, ∆sbmA [2] [µg/mL] | Minimal Inhibitory Concentration, 25% MHB2, ∆sbmA ∆mdtM [3] [µg/mL] | Minimal Inhibitory Concentration, 33% TSB, ∆sbmA ∆mdtM [3] [µg/mL] | Effect of the additional mdtM knockout on antibacterial activity [3] | Inhibition of Cf-ARV-1502 binding to the 70S ribosome (in words) [4] | MIC (µg/mL), Table 3 ([1]; BW25113, 4 h) [µg/mL] | Minimal Inhibitory Concentration, 25% MHB2, wt ([1]; BW25113, 20 h) [µg/mL] | Minimal Inhibitory Concentration, 33% TSB, wt ([1]; BW25113, 20 h) [µg/mL] | MIC / activity against E. coli ([1]; medium not given) | In Vitro Translation (%) [5] [%] | Ribosome Binding (%) [4] [%] | MIC / activity against E. coli ([1]; BW25113, 4 h) [µg/mL] | Reduction of GFP expression, 50 µmol/L peptide [5] | Effect of deletion of SbmA on antibacterial activity ([2]; ∆sbmA compared with wild-type strain) |
| --- | --- | --- | --- | --- | --- | --- | --- | --- | --- | --- | --- | --- | --- | --- | --- | --- | --- |
| CC(C)C[C@H](NC(=O)[C@H](Cc1ccc(O)cc1)NC(=O)[C@@H]1CCCN1C(=O)[C@H](CCCNC(=N)N)NC(=O)[C@@H]1CCCN1C(=O)[C@H](Cc1ccccc1)NC(=O)[C@H](Cc1ccccc1)NC(=O)[C@@H]1CCCN1C(=O)[C@H](CCCNC(=N)N)NC(=O)C1(N)CCCCC1)C(=O)N[C@@H](CO)C(=O)N[C@@H](CCCNC(=N)N)C(=O)N1CCC[C@H]1C(=O)N[C@@H](CCCNC(=N)N)C(=O)N1CCC[C@H]1C(=O)N1CCC[C@H]1C(=O)N[C@@H](CCCNC(=N)N)C(=O)N1CCC[C@H]1C(=O)N[C@H](C(=O)N[C@@H](CCCNC(=N)N)C(N)=O)C(C)C [Peptide 99] (H-[Ac6c]RPFFPRPYLSRPRPPRPVR-NH2) | 16 to 32 | 64 | 32 | 128 | 32 | 128 | no effect | did not inhibit the binding of Cf-ARV-1502 |  |  |  |  |  |  |  |  |  |
| CC(C)C[C@H](NC(=O)[C@H](Cc1ccc(O)cc1)NC(=O)[C@@H]1CCCN1C(=O)[C@H](CCCNC(=N)N)NC(=O)[C@@H]1CCCN1C(=O)[C@H](CC(=O)O)NC(=O)[C@H](CO)NC(=O)[C@@H]1CCCN1C(=O)[C@H](CCCNC(=N)N)NC(=O)C1(N)CCCCC1)C(=O)N1CCC[C@H]1C(=O)N[C@@H](CCCNC(=N)N)C(=O)N1CCC[C@H]1C(=O)N[C@@H](CCCNC(=N)N)C(=O)N1CCC[C@H]1C(=O)N1CCC[C@H]1C(=O)N[C@@H](CCCNC(=N)N)C(=O)N1CCC[C@H]1C(=O)N[C@H](C(=O)N[C@@H](CCCNC(=N)N)C(N)=O)C(C)C [Peptide 50] (H-[Ac6c]RPSDPRPYLPRPRPPRPVR-NH2) |  |  | >128 | >128 | >128 | >128 |  | inhibited Cf-ARV-1502 | 128 (≈ 52.6 µM) | 128 | 64 | low activity against E. coli | 113.7 ± 9.1 | 67.9 ± 4.8 |  |  |  |
| CC(C)[C@H](NC(=O)[C@@H]1CCCN1C(=O)[C@H](CCCNC(=N)N)NC(=O)[C@@H]1CCCN1C(=O)[C@@H]1CCCN1C(=O)[C@H](CCCNC(=N)N)NC(=O)[C@@H]1CCCN1C(=O)[C@H](CCCNC(=N)N)NC(=O)[C@@H]1CCCN1C(=O)[C@H](Cc1ccccc1)NC(=O)[C@H](CCCCN)NC(=O)[C@@H]1CCCN1C(=O)[C@H](CCCNC(=N)N)NC(=O)[C@@H]1CCCN1C(=O)[C@H](CCCCN)NC(=O)[C@H](CC(=O)O)NC(=O)[C@@H]1CCCN1C(=O)[C@H](CCCNC(=N)N)NC(=O)C1(N)CCCCC1)C(=O)N[C@@H](CCCNC(=N)N)C(N)=O [Peptide 123] (H-[Ac6c]RPDKPRPKFPRPRPPRPVR-NH2) |  | 128 | 64 | >128 | 128 | >128 | weakened the activity | did not inhibit the binding of Cf-ARV-1502 |  | 32 |  |  |  |  | 16 to 32 |  |  |
| CC(C)C[C@H](NC(=O)[C@H](Cc1ccc(O)cc1)NC(=O)[C@@H]1CCCN1C(=O)[C@H](CCCNC(=N)N)NC(=O)[C@@H]1CCCN1C(=O)[C@H](Cc1ccccc1)NC(=O)[C@H](Cc1ccccc1)NC(=O)[C@@H]1CCCN1C(=O)[C@H](CCCNC(=N)N)NC(=O)C1(N)CCCCC1)C(=O)N1CCC[C@H]1C(=O)N[C@@H](CC(C)C)C(=O)N1CCC[C@H]1C(=O)N[C@@H](CCCNC(=N)N)C(=O)N1CCC[C@H]1C(=O)N1CCC[C@H]1C(=O)N[C@@H](CCCNC(=N)N)C(=O)N1CCC[C@H]1C(=O)N[C@H](C(=O)N[C@@H](CCCNC(=N)N)C(N)=O)C(C)C [Peptide 102] (H-[Ac6c]RPFFPRPYLPLPRPPRPVR-NH2; N-terminus and C-terminus assumed) |  |  |  |  |  |  | no effect |  | 32 to 64 | 32 to 64 | 64 |  | 78.9 ± 3.5 | 76.5 ± 5.6 |  | ~ 25% | no effect |
| CC(C)C[C@H](NC(=O)[C@H](Cc1ccc(O)cc1)NC(=O)[C@@H]1CCCN1C(=O)[C@H](CCCNC(=N)N)NC(=O)[C@@H]1CCCN1C(=O)[C@H](CO)NC(=O)[C@H](CCCCN)NC(=O)[C@@H]1CCCN1C(=O)[C@H](CCCNC(=N)N)NC(=O)C1(N)CCCCC1)C(=O)N1CCC[C@H]1C(=O)N[C@@H](CCCNC(=N)N)C(=O)N1CCC[C@H]1C(=O)N[C@@H](CCCNC(=N)N)C(=O)N1CCC[C@H]1C(=O)N1CCC[C@H]1C(=O)N[C@@H](CCCNC(=N)N)C(=O)N1CCC[C@H]1C(=O)N[C@H](C(=O)N[C@@H](CCCNC(=N)N)C(N)=O)C(C)C [Peptide 29] (H-[Ac6c]RPKSPRPYLPRPRPPRPVR-NH2; N-terminus and C-terminus assumed) |  |  |  |  |  |  | no effect |  | 16 (≈ 6.54 µM) | 16 | 32 |  | 74.3 ± 10.1 | 78.5 ± 3.3 |  | ~ 25% |  |
